As usually defined, the Ki is the equilibrium dissociation constant of an inhibitor or competing ligand from its target.

The values that follow come from patent publication US9561231B2 (AbbVie Inc., priority 2012, dated 2017).

One assay has as its system DLD-1. The experiment in a line: Proliferation panel assay: DLD-1. It is filed as cell-based. Particulars: Homo sapiens, 120 h; DLD-1 (Colon); 5 days, Cell Titer Glo; read-out: Cellular Proliferation EC50. (ATP-based viability assays read luminescence as a measure of living cells.)
The subject of a further assay is EJ-1. The assay is described as follows: Proliferation panel assay: EJ-1. It is filed as cell-based. Particulars: EJ1, 120 h; EJ-1 (Bladder); 5 days, Cell Titer Glo; read-out: Cellular Proliferation EC50.
For another assay, the system named is H460. The experiment in a line: Proliferation panel assay: H460. Type of assay: cell-based. Particulars: Homo sapiens, NCI-H460, 120 h; H460 (NSCLC); 5 days, Cell Titer Glo; read-out: Cellular Proliferation EC50.
For the next assay, the system named is GEO. The assay is described as follows: Proliferation panel assay: GEO. Type of assay: cell-based. The following applies: 120 h; GEO (Colon); 5 days, Cell Titer Glo; read-out: Cellular Proliferation EC50.
The next assay has as its system RPMI-8226. The assay is described as follows: Proliferation panel assay: RPMI-8226. Type of assay: cell-based. Particulars: Homo sapiens, 120 h; RPMI-8226 (Multiple Myeloma); 5 days, Cell Titer Glo; read-out: Cellular Proliferation EC50.
Another assay relates to HepG2. The assay is described as follows: Proliferation panel assay: HepG2. It is filed as cell-based. Particulars: Homo sapiens, 120 h; HepG2 (Hepatocellular); 5 days, Cell Titer Glo; read-out: Cellular Proliferation EC50.
Assay [1] concerns the target T1, second (BD2: amino acids E352-E168) bromodomain of BRD4 (Homo sapiens, UniProt O60885).
T1 construct: protocol
The assay is described as follows: TR-FRET bromodomain binding assay, BRD4 BD2. The following applies: TR-FRET assay protocol (A-G, compound concentration range); Ki calculated from IC50, probe Kd and probe concentration; read-out: TR-FRET Binding Ki: BRD4 (BDII_E352-M457). Put shortly:
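His-tagged BRD4 bromodomain competed against an Alexa647-labeled BET-inhibitor probe by TR-FRET in 20 mM sodium phosphate pH 6.0, 50 mM NaCl, 1 mM EDTA, 0.01% Triton X-100, 1 mM DTT.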

For the next assay, the system named is PC3M. The assay is described as follows: Proliferation panel assay: PC3M. It is filed as cell-based. Particulars: Homo sapiens, PC-3M, 120 h; PC3M (Prostate); 5 days, Cell Titer Glo; read-out: Cellular Proliferation EC50.
For another assay, the system named is FaDu. The experiment in a line: Proliferation panel assay: FaDu. Type of assay: cell-based. The following applies: Homo sapiens, 120 h; FaDu (Head & Neck); 5 days, Cell Titer Glo; read-out: Cellular Proliferation EC50.
For a further assay, the system named is SKM1. The experiment in a line: Proliferation panel assay: SKM1. It is filed as cell-based. Particulars: Homo sapiens, SKM-1, 120 h; SKM1 (AML); 5 days, Cell Titer Glo; read-out: Cellular Proliferation EC50.
For a further assay, the system named is H1975. The experiment in a line: Proliferation panel assay: H1975. It is filed as cell-based. The following applies: Homo sapiens, NCI-H1975, 120 h; H1975 (NSCLC); 5 days, Cell Titer Glo; read-out: Cellular Proliferation EC50.
The subject of a further assay is OPM2. The experiment in a line: Proliferation panel assay: OPM2. Type of assay: cell-based. Particulars: Homo sapiens, OPM-2, 120 h; OPM2 (Multiple Myeloma); 5 days, Cell Titer Glo; read-out: Cellular Proliferation EC50.
Another assay deals with Raji. The experiment in a line: Proliferation panel assay: Raji. The following applies: Homo sapiens, 120 h; Raji (Burkitt lymphoma); 5 days, Cell Titer Glo; read-out: Cellular Proliferation EC50. It is filed as cell-based.
For a further assay, the system named is BxPC3FP5. The experiment in a line: Proliferation panel assay: BxPC3FP5. The following applies: 120 h; BxPC3FP5 (Pancreas); 5 days, Cell Titer Glo; read-out: Cellular Proliferation EC50. Type of assay: cell-based.
The subject of assay [2] is breast cancer cell line MX-1. The experiment in a line: MX-1 cell line proliferation assay (3-day). Type of assay: cell-based. Particulars: Homo sapiens, MX1; MX-1 cells, 72 h incubation, Cell Titer Glo; read-out: Cellular proliferation: EC50. Put shortly:
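EC50 derived by sigmoidal fitting of Cell Titer Glo signal relative to DMSO controls. Compound, 3 μM down to 0.0001 μM final in 3-fold steps, was added to adhered MX-1 cells (5000/well, RPMI + 10% FBS) for a 3-day incubation at 37° C.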

The next assay deals with NCI-H929. The experiment in a line: Proliferation panel assay: NCI-H929. Type of assay: cell-based. Particulars: Homo sapiens, 120 h; NCI-H929 (Multiple Myeloma); 5 days, Cell Titer Glo; read-out: Cellular Proliferation EC50.
The next assay has as its system D54MG. The assay is described as follows: Proliferation panel assay: D54MG. The following applies: 120 h; D54MG (Glioblastoma); 5 days, Cell Titer Glo; read-out: Cellular Proliferation EC50. It is filed as cell-based.
For a further assay, the system named is HPAC. The assay is described as follows: Proliferation panel assay: HPAC. Type of assay: cell-based. The following applies: Homo sapiens, 120 h; HPAC (Pancreas); 5 days, Cell Titer Glo; read-out: Cellular Proliferation EC50.
The subject of a further assay is 786-0. The assay is described as follows: Proliferation panel assay: 786-0. Type of assay: cell-based. The following applies: Homo sapiens, 120 h; 786-0 (RCC); 5 days, Cell Titer Glo; read-out: Cellular Proliferation EC50.

The structures appear in SMILES notation.

Turning to `Cc1cc(-c2cc(NS(C)(=O)=O)ccc2Oc2ccccc2)c[nH]c1=O` [Example 261, N-[3-(5-methyl-6-oxo-1,6-dihydropyridin-3-yl)-4-phenoxyphenyl]methanesulfonamide], the EC50 was 620 nM in the assay on DLD-1; 1160 nM in the assay with EJ-1; 310 nM in the assay on H460; 670 nM in the assay with GEO; 305 nM with RPMI-8226; 510 nM in the assay with HepG2. Also, the EC50 amounted to 1400 nM with PC3M; 270 nM in the assay on FaDu; 135 nM with SKM1; 470 nM with H1975; 55 nM in the assay with OPM2; 134 nM in the assay on Raji. Also, the EC50 in the assay with BxPC3FP5 worked out at 230 nM; in assay [2] it was 387 nM; with NCI-H929, 98 nM; in the assay with D54MG, 338 nM; in the assay on HPAC, 500 nM; in the assay on 786-0, 250 nM. Moreover, the Ki in assay [1] was 66.4 nM.

On to `Cn1cc(-c2cc(NS(C)(=O)=O)ccc2Oc2ccccc2)ccc1=O` [Example 224, N-[3-(1-methyl-6-oxo-1,6-dihydropyridin-3-yl)-4-phenoxyphenyl]methanesulfonamide], for which the EC50 in the assay with DLD-1 stood at 850 nM; with EJ-1, 1590 nM; in the assay with H460 it was 110 nM; in the assay with GEO it was 550 nM; in the assay on RPMI-8226, 279 nM; with HepG2, 486 nM. Moreover, the EC50 turned out to be 1450 nM in the assay with PC3M; 280 nM with FaDu; 116 nM with SKM1; 380 nM in the assay on H1975; 50 nM in the assay on OPM2; 129 nM in the assay with Raji. In addition, the EC50 was 230 nM with BxPC3FP5; 208 nM in [2]; 109 nM in the assay with NCI-H929; 423 nM with D54MG; 380 nM in the assay with HPAC; 273 nM in the assay with 786-0. Besides, the Ki in [1] is 113 nM.
